Data from PubChem BioAssay AID248 (DTP/NCI, 2004).
“And” between values parts separate entries of the source, which are not always exact repeats. Equal values may be shown once. Toxic doses and inconclusive results are not listed.

System: L1210 leukemia ip in BDF1 mice, survival T/C
Experiment: NCI In Vivo Anticancer Drug Screen. Data for tumor model L1210 Leukemia (intraperitoneal) in B6D2F1 (BDF1) mice
Settings: endpoint: mean survival time, higher = longer survival
Procedure, shortened: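 Survival endpoint. Drug-treated group vs vehicle group, expressed as T divided by C. Tumor passaged by transplantation.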

[1] = dose: 100.0 mg/kg/injection, schedule: Q04DX003 (ip), vehicle: saline with Tween-80
[2] = dose: 200.0 mg/kg/injection, schedule: Q04DX003 (ip), vehicle: saline with Tween-80
[3] = dose: 100.0 mg/kg/injection, schedule: Q01DX001 (ip), vehicle: carboxymethylcellulose (CMC)
[4] = dose: 400.0 mg/kg/injection, schedule: Q01DX001 (ip), vehicle: carboxymethylcellulose (CMC)
[5] = dose: 50.0 mg/kg/injection, schedule: Q01DX001 (ip), vehicle: saline
[6] = dose: 400.0 mg/kg/injection, schedule: Q04DX003 (ip), vehicle: saline with Tween-80
[7] = dose: 100.0 mg/kg/injection, schedule: Q01DX001 (ip), vehicle: other
[8] = dose: 200.0 mg/kg/injection, schedule: Q01DX001 (ip), vehicle: other
[9] = dose: 400.0 mg/kg/injection, schedule: Q01DX001 (ip), vehicle: other

CCCCN(CCCC)CCCCO
T/C (dose: 50.0 mg/kg/injection, schedule: Q01DX009 (ip), vehicle: saline with Tween-80): 116 % of control
T/C (dose: 100.0 mg/kg/injection, schedule: Q01DX009 (ip), vehicle: saline with Tween-80): 101 % of control
T/C [1]: 102 % of control
T/C (dose: 200.0 mg/kg/injection, schedule: Q01DX009 (ip), vehicle: saline with Tween-80): 101 % of control
T/C [2]: 96 % of control

CCCCCCCCC(CCCC1CCCC1)CCCC1CCCC1
T/C (dose: 100.0 mg/kg/injection, schedule: Q01DX001 (ip), vehicle: saline with Tween-80): 98 % of control
T/C (dose: 200.0 mg/kg/injection, schedule: Q01DX001 (ip), vehicle: saline with Tween-80): 94 % of control
T/C (dose: 400.0 mg/kg/injection, schedule: Q01DX001 (ip), vehicle: saline with Tween-80): 96 % of control

COc1ccccc1N1C(=O)CC(Sc2ccccc2N)C1=O (stereo not given)
T/C (dose: 100.0 mg/kg/injection, schedule: Q01DX009 (ip), vehicle: saline sonified): 95 % of control
T/C (dose: 100.0 mg/kg/injection, schedule: Q04DX003 (ip), vehicle: saline sonified): 87 % of control
T/C (dose: 200.0 mg/kg/injection, schedule: Q01DX009 (ip), vehicle: saline sonified): 88 % of control
T/C (dose: 200.0 mg/kg/injection, schedule: Q04DX003 (ip), vehicle: saline sonified): 94 % of control
T/C (dose: 400.0 mg/kg/injection, schedule: Q01DX009 (ip), vehicle: saline sonified): 93 % of control
T/C (dose: 400.0 mg/kg/injection, schedule: Q04DX003 (ip), vehicle: saline sonified): 96 % of control

Nc1ncnc2c1c(C1=NCCN1)cn2C1OC(CO)C(O)C1O (stereo not given)
T/C (dose: 25.0 mg/kg/injection, schedule: Q01DX009 (ip), vehicle: saline): 179 % of control
T/C (dose: 50.0 mg/kg/injection, schedule: Q01DX009 (ip), vehicle: saline): 155 % of control and 230 % of control
T/C (dose: 200.0 mg/kg/injection, schedule: Q01DX005 (ip), vehicle: saline): 105 % of control

O=C(O)c1cc(Br)ccc1Br
T/C (dose: 100.0 mg/kg/injection, schedule: Q04DX002 (ip), vehicle: saline with Tween-80): 102 % of control
T/C (dose: 200.0 mg/kg/injection, schedule: Q04DX002 (ip), vehicle: saline with Tween-80): 110 % of control
T/C (dose: 400.0 mg/kg/injection, schedule: Q04DX002 (ip), vehicle: saline with Tween-80): 105 % of control

CC1CCCC(C)N1C(=O)Nc1cccc(C(F)(F)F)c1 (stereo not given)
T/C (dose: 100.0 mg/kg/injection, schedule: Q01DX009 (ip), vehicle: gum acacia): 108 % of control
T/C (dose: 200.0 mg/kg/injection, schedule: Q01DX009 (ip), vehicle: gum acacia): 103 % of control

Nc1cc2ccc3ccccc3c2c2ccccc12
T/C (dose: 100.0 mg/kg/injection, schedule: Q01DX001 (ip), vehicle: Klucel (hydroxypropylcellulose) (HPC)): 110 % of control
T/C (dose: 130.0 mg/kg/injection, schedule: Q01DX001 (ip), vehicle: Klucel (hydroxypropylcellulose) (HPC)): 94 % of control

O=[N+]([O-])c1ccc(C2ON2C2CCCCC2)cc1 (stereo not given)
T/C [3]: 87 % of control
T/C [4]: 108 % of control

COc1ccccc1CNc1ncnc2nc[nH]c12
T/C (dose: 100.0 mg/kg/injection, schedule: Q04DX003 (ip), vehicle: acetone): 97 % of control
T/C (dose: 200.0 mg/kg/injection, schedule: Q04DX003 (ip), vehicle: acetone): 94 % of control
T/C (dose: 400.0 mg/kg/injection, schedule: Q04DX003 (ip), vehicle: acetone): 107 % of control

Cc1ccnc(SC#N)n1
T/C (dose: 5.0 mg/kg/injection, schedule: Q01DX001 (ip), vehicle: other): 105 % of control
T/C (dose: 10.0 mg/kg/injection, schedule: Q01DX001 (ip), vehicle: other): 105 % of control

C=C1C(=O)OC2C(=O)OC(CCCCCCCC)C12 (stereo not given)
T/C (dose: 6.2 mg/kg/injection, schedule: Q04DX002 (ip), vehicle: Klucel (hydroxypropylcellulose) (HPC)): 97 % of control
T/C (dose: 12.5 mg/kg/injection, schedule: Q04DX002 (ip), vehicle: Klucel (hydroxypropylcellulose) (HPC)): 94 % of control
T/C (dose: 25.0 mg/kg/injection, schedule: Q04DX002 (ip), vehicle: Klucel (hydroxypropylcellulose) (HPC)): 97 % of control and 104 % of control

C=CC(=O)O
T/C (dose: 0.5 mg/kg/injection, schedule: Q01DX009 (ip), vehicle: saline): 101 % of control
T/C (dose: 1.0 mg/kg/injection, schedule: Q01DX009 (ip), vehicle: saline): 101 % of control
T/C (dose: 1.56 mg/kg/injection, schedule: Q01DX009 (ip), vehicle: acetone): 104 % of control
T/C (dose: 2.0 mg/kg/injection, schedule: Q01DX009 (ip), vehicle: saline): 108 % of control
T/C (dose: 3.12 mg/kg/injection, schedule: Q01DX009 (ip), vehicle: acetone): 102 % of control
T/C (dose: 4.0 mg/kg/injection, schedule: Q01DX009 (ip), vehicle: saline): 116 % of control
T/C (dose: 5.0 mg/kg/injection, schedule: Q01DX001 (ip), vehicle: saline): 102 % of control and 93 % of control
T/C (dose: 6.25 mg/kg/injection, schedule: Q01DX009 (ip), vehicle: acetone): 88 % of control
T/C (dose: 10.0 mg/kg/injection, schedule: Q01DX001 (ip), vehicle: saline): 108 % of control and 100 % of control
T/C (dose: 20.0 mg/kg/injection, schedule: Q01DX001 (ip), vehicle: saline): 101 % of control
T/C (dose: 25.0 mg/kg/injection, schedule: Q04DX003 (ip), vehicle: Klucel (hydroxypropylcellulose) (HPC)): 90 % of control
T/C (dose: 50.0 mg/kg/injection, schedule: Q01DX001 (ip), vehicle: carboxymethylcellulose (CMC)): 88 % of control and 106 % of control
T/C [5]: 95 % of control
T/C [3]: 86 % of control and 95 % of control
T/C (dose: 100.0 mg/kg/injection, schedule: Q01DX001 (ip), vehicle: saline): 90 % of control and 88 % of control
T/C (dose: 100.0 mg/kg/injection, schedule: Q04DX003 (ip), vehicle: Klucel (hydroxypropylcellulose) (HPC)): 89 % of control
T/C (dose: 200.0 mg/kg/injection, schedule: Q01DX001 (ip), vehicle: carboxymethylcellulose (CMC)): 93 % of control and 101 % of control
T/C (dose: 200.0 mg/kg/injection, schedule: Q01DX001 (ip), vehicle: saline): 93 % of control and 88 % of control
T/C [2]: 87 % of control
T/C [4]: 88 % of control and 106 % of control
T/C (dose: 400.0 mg/kg/injection, schedule: Q01DX001 (ip), vehicle: saline): 101 % of control and 95 % of control and 102 % of control
T/C (dose: 320.0 micrograms/kg/injection, schedule: Q01DX009 (ip), vehicle: saline): 96 % of control
T/C (dose: 480.0 micrograms/kg/injection, schedule: Q01DX009 (ip), vehicle: saline): 102 % of control
T/C (dose: 730.0 micrograms/kg/injection, schedule: Q01DX009 (ip), vehicle: saline): 106 % of control
T/C (dose: 1100.0 micrograms/kg/injection, schedule: Q01DX009 (ip), vehicle: saline): 107 % of control

CN=[N+]([O-])C1(OC(C)=O)CCCC1
T/C (dose: 6.25 mg/kg/injection, schedule: Q01DX001 (ip), vehicle: saline): 117 % of control
T/C (dose: 12.5 mg/kg/injection, schedule: Q01DX001 (ip), vehicle: saline): 110 % of control
T/C (dose: 25.0 mg/kg/injection, schedule: Q01DX001 (ip), vehicle: saline): 117 % of control
T/C [5]: 113 % of control

COC(=O)C1=CNC=C(C(=O)OC)C1c1ccc(OC)cc1
T/C [1]: 95 % of control
T/C [2]: 96 % of control
T/C [6]: 95 % of control

CCCCCCCCC1SC1CCCCCCCC(=O)OCC1CS1 (stereo not given)
T/C [7]: 101 % of control
T/C [8]: 115 % of control
T/C [9]: 93 % of control

O=C(CN1CC1)NCCCCCCCNC(=O)CN1CC1
T/C (dose: 6.5 mg/kg/injection, schedule: Q01DX001 (ip), vehicle: carboxymethylcellulose (CMC)): 120 % of control
T/C (dose: 7.0 mg/kg/injection, schedule: Q01DX009 (ip), vehicle: carboxymethylcellulose (CMC)): 94 % of control
T/C (dose: 9.7 mg/kg/injection, schedule: Q01DX001 (ip), vehicle: carboxymethylcellulose (CMC)): 123 % of control
T/C (dose: 11.0 mg/kg/injection, schedule: Q01DX009 (ip), vehicle: carboxymethylcellulose (CMC)): 100 % of control
T/C (dose: 16.0 mg/kg/injection, schedule: Q01DX009 (ip), vehicle: carboxymethylcellulose (CMC)): 94 % of control
T/C (dose: 25.0 mg/kg/injection, schedule: Q01DX009 (ip), vehicle: carboxymethylcellulose (CMC)): 103 % of control
T/C (dose: 33.0 mg/kg/injection, schedule: Q01DX001 (ip), vehicle: carboxymethylcellulose (CMC)): 154 % of control

CCS(=O)(=O)c1ccc(NC(=O)OC2CCCCCC2)cc1
T/C [7]: 91 % of control
T/C [8]: 91 % of control
T/C [9]: 93 % of control

O=C(NCc1ccccc1)C1C2CC3OC(=O)C1C3C2 (stereo not given)
T/C [1]: 98 % of control
T/C (dose: 100.0 mg/kg/injection, schedule: Q04DX003 (ip), vehicle: saline): 123 % of control
T/C [2]: 95 % of control
T/C (dose: 200.0 mg/kg/injection, schedule: Q04DX003 (ip), vehicle: saline): 104 % of control
T/C [6]: 95 % of control
T/C (dose: 400.0 mg/kg/injection, schedule: Q04DX003 (ip), vehicle: saline): 104 % of control
